The structures appear in SMILES notation. Like-named read-outs stand apart in the source and are kept apart here. Some results are limits rather than exact numbers.

The subject of test [1] is HCT116 cells. Put plainly: Antiproliferation assay, Cell Titer Glo, 72 hours. It is filed as cell-based. Here is the method:
HCT116 cells were plated in 384-well plates at 750 cells/well in 50 ul fresh media (McCoy's 5A+10% FBS+1% Penn/Strep) and treated with 0.1 μl candidate compounds in four-fold dilution series using the Janus pinner. Cells were incubated with compounds for 72 hours in 37° C. 5% CO2. Anti-proliferative effects of these compounds were assessed 72 hours after compound addition using Cell Titer Glo (Promega cat #G7571) as described in product manual by luminescence measurements using an Envision platereader. All proliferation assays were performed in biological quadruplicate. IC50 values were determined using a non-linear regression curve fit in GraphPad Prism 6.

In test [2] the target is CDK16/CycY (Homo sapiens (Human), UniProt Q00536). Description: Lanthascreen Eu kinase binding assay for CDK16/CycY. The method, then:
Lanthascreen Eu kinase binding assays were conducted for CDK16/CycY at Life Technologies.
On the technique in general: TR-FRET usually uses a lanthanide donor and a delayed reading to cut background.

The target in test [3] is CDK2/CycA (Homo sapiens (Human), UniProt P24941). Description: Z'LYTE kinase assay for CDK2/CycA at Km ATP. It is filed as biochemical.
Test [4] deals with Cdk14/CycY (Homo sapiens (Human), UniProt O94921). Description: Lanthascreen Eu kinase binding assay for Cdk14/CycY with 30 minute pre-incubation. The following applies: 30 minute pre-incubation of kinase with compound; read-out: IC50 CDK14 binding by Lanthascreen. The method, then:
Lanthascreen Eu kinase binding assays were conducted for Cdk14/CycY largely as performed in the commercial assay service by Life Technologies, but included a 30 minute pre-incubation step of the kinase with candidate compounds to facilitate covalent bond formation.

[5] abbreviates: read-out: IC50 CDK16 Lanthascreen binding.
Setting [6] is: read-out: IC50 CDK2 Z′LYTE kinase assay.

Cdk14/CycY, sequence (O94921 whole entry): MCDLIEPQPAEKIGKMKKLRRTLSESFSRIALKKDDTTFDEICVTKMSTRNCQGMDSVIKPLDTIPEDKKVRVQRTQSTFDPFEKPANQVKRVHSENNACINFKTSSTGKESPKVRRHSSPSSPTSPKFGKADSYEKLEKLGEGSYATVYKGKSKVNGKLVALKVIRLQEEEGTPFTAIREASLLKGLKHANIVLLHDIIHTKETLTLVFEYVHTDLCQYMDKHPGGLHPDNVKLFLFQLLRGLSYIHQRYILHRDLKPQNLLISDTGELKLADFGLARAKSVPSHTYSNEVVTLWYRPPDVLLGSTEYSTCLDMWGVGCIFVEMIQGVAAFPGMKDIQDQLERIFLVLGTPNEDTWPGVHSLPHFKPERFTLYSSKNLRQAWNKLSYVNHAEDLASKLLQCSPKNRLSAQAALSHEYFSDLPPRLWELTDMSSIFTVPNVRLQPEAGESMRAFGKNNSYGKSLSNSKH
Cdk14/CycY, sequence (Q8ND76 whole entry partner): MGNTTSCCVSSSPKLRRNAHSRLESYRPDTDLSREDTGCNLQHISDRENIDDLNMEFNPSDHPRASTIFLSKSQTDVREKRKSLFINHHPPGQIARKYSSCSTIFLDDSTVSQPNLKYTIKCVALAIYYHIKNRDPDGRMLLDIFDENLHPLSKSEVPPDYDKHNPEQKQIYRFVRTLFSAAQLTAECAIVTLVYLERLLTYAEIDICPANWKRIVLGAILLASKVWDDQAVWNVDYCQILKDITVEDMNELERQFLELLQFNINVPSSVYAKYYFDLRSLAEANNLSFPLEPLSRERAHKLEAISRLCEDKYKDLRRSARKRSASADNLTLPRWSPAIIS
CDK16/CycY, sequence (Q00536 whole entry): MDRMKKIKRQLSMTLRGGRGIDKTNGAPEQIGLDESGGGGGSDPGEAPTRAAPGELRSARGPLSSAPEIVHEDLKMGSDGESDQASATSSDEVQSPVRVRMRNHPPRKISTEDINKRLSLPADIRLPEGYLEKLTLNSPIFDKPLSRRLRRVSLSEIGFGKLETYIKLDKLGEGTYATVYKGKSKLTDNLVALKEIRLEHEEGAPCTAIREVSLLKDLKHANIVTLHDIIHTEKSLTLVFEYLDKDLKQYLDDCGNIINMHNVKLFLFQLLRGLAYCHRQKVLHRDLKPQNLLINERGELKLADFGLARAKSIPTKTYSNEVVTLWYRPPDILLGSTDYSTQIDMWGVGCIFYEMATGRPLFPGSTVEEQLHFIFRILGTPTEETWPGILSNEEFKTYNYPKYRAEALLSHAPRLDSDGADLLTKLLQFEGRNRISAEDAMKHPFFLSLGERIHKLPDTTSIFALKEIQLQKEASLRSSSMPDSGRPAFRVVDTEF
CDK16/CycY, sequence (Q8ND76 whole entry partner): as the sequence (Q8ND76 whole entry partner) above

For the compound `CCC(=O)Nc1cccc(CN2CCC(NC(=O)c3n[nH]cc3NC(=O)c3c(Cl)cccc3Cl)CC2)c1` [FMF-04-172-2, 4-(2,6-dichlorobenzamido)-N-(1-(3-propionamidobenzyl)piperidin-4-yl)-1H-pyrazole-3-carboxamide], the IC50 is 173 nM in test [1]; 123 nM in test [1] (Homo sapiens, HCT-116, 72 h); 29.4 nM in test [2] (setting [5]); 19.6 nM in test [3] (setting [6]).

As to `CCC(=O)Nc1cccc(S(=O)(=O)N2CCC(NC(=O)c3n[nH]cc3NC(=O)c3c(Cl)cccc3Cl)CC2)c1` [FMF-04-060-1, 4-(2,6-dichlorobenzamido)-N-(1-((3-propionamidophenyl)sulfonyl)piperidin-4-yl)-1H-pyrazole-3-carboxamide], the IC50 in test [1] (Homo sapiens, HCT-116, 72 h) worked out at 76 nM; in test [2] (setting [5]), 2.3 nM; in test [3] (setting [6]) it was 3 nM.

With `COc1cccc(Cl)c1C(=O)Nc1c[nH]nc1C(=O)NC1CCN(Cc2cccc(NC(=O)/C=C/CN(C)C)c2)CC1` [FMF-05-032-1, (E)-4-(2-chloro-6-methoxybenzamido)-N-(1-(3-(4-(dimethylamino)but-2-enamido)benzyl)piperidin-4-yl)-1H-pyrazole-3-carboxamide], the IC50 in test [1] (Homo sapiens, HCT-116, 72 h) was 115 nM; in test [2] (read-out: CDK16 IC50), 8.2 nM; in test [2] (setting [5]), 8.2 nM; in test [3] (read-out: CDK2 IC50) it was 36 nM; in test [3] (setting [6]) it was 36 nM.

On to `CN(C)C/C=C/C(=O)Nc1cccc(S(=O)(=O)N2CCC(NC(=O)c3n[nH]cc3NC(=O)c3c(Cl)cccc3Cl)CC2)c1` [FMF-03-198-2, (E)-4-(2,6-dichlorobenzamido)-N-(1-((3-(4-(dimethylamino)but-2-enamido)phenyl)sulfonyl)piperidin-4-yl)-1H-pyrazole-3-carboxamide], for which the IC50 in test [2] (setting [5]) and in test [3] (setting [6]) was 0.9 nM each time.

In the case of `CCC(=O)Nc1cccc(S(=O)(=O)N2CCC(NC(=O)c3n[nH]cc3NC(=O)c3c(Cl)cccc3OC)CC2)c1` [FMF-05-033-1, 4-(2-chloro-6-methoxybenzamido)-N-(1-((3-propionamidophenyl)sulfonyl)piperidin-4-yl)-1H-pyrazole-3-carboxamide], the half-inhibitory concentration (IC50) in test [1] (Homo sapiens, HCT-116, 72 h) was 172 nM; in test [2] (setting [5]), 3.4 nM; in test [3] (setting [6]) it was 3 nM.

Regarding `COc1cccc(Cl)c1C(=O)Nc1c[nH]nc1C(=O)NC1CCN(S(=O)(=O)c2cccc(NC(=O)/C=C/CN(C)C)c2)CC1` [FMF-04-107-2, (E)-4-(2-chloro-6-methoxybenzamido)-N-(1-((3-(4-(dimethylamino)but-2-enamido)phenyl)sulfonyl)piperidin-4-yl)-1H-pyrazole-3-carboxamide], the concentration for half-maximal inhibition (IC50) in test [1] is 524 nM; in test [1] (Homo sapiens, HCT-116, 72 h) it was 524 nM; in test [2] (read-out: CDK16 IC50), 2.3 nM; in test [2] (setting [5]), 2.3 nM; in test [3] (read-out: CDK2 IC50), 4.5 nM; in test [3] (setting [6]) it was 4.5 nM.

For `CN(C)C/C=C/C(=O)Nc1cccc(S(=O)(=O)N2CCC(NC(=O)c3n[nH]cc3NC(=O)C3CCC(F)(F)CC3)CC2)c1` [FMF-05-116-1, (E)-4-(4,4-difluorocyclohexane-1-carboxamido)-N-(1-((3-(4-(dimethylamino)but-2-enamido)phenyl)sulfonyl)piperidin-4-yl)-1H-pyrazole-3-carboxamide], the 50% inhibitory concentration (IC50) in test [1] (Homo sapiens, HCT-116, 72 h) turned out to be 8200 nM; in test [2] (setting [5]), 140 nM; in test [3] (setting [6]), 51.5 nM.

For the compound `CN(C)C/C=C/C(=O)Nc1ccc(NC(=O)c2n[nH]cc2NC(=O)c2c(Cl)cccc2Cl)cc1` [FMF-03-182-2, (E)-4-(2,6-dichlorobenzamido)-N-(4-(4-(dimethylamino)but-2-enamido)phenyl)-1H-pyrazole-3-carboxamide], the IC50 in test [4] turned out to be 82 nM; in test [1] (Homo sapiens, HCT-116, 72 h), 395 nM.

As for `C=CC(=O)Nc1ccc(S(=O)(=O)N2CC[C@@H](NC(=O)c3n[nH]cc3NC(=O)c3c(Cl)cccc3Cl)C2)cc1` [FMF-05-066-1, (R)—N-(1-((4-acrylamidophenyl)sulfonyl)pyrrolidin-3-yl)-4-(2,6-dichlorobenzamido)-1H-pyrazole-3-carboxamide], the IC50 in test [4] is greater than 10000 nM; in test [1] (Homo sapiens, HCT-116, 72 h), 3000 nM.

Turning to `C=CC(=O)Nc1ccc(N2CC[C@@H](NC(=O)c3n[nH]cc3NC(=O)c3c(Cl)cccc3Cl)C2)cc1` [FMF-05-075-1, (R)—N-(1-(4-acrylamidophenyl)pyrrolidin-3-yl)-4-(2,6-dichlorobenzamido)-1H-pyrazole-3-carboxamide], the IC50 amounted to 267 nM in test [4] and 64 nM in test [1] (Homo sapiens, HCT-116, 72 h).

Consider `C=CC(=O)Nc1cccc(N2CCC(NC(=O)c3n[nH]cc3NC(=O)c3c(Cl)cccc3Cl)C2)c1` (stereo in doubt) [FMF-05-086-1, (S)—N-(1-(3-acrylamidophenyl)pyrrolidin-3-yl)-4-(2,6-dichlorobenzamido)-1H-pyrazole-3-carboxamide], for which the IC50 worked out at 1100 nM in test [4] and 826 nM in test [1].

On to `CN(C)C/C=C/C(=O)N1CCC[C@H](NC(=O)c2n[nH]cc2NC(=O)c2c(Cl)cccc2Cl)C1` [FMF-03-184-2, (S,E)-4-(2,6-dichlorobenzamido)-N-(1-(4-(dimethylamino)but-2-enoyl)piperidin-3-yl)-1H-pyrazole-3-carboxamide], for which the IC50 was determined as 976 nM in test [4] and 1340 nM in test [1] (Homo sapiens, HCT-116, 72 h).

In the case of `C=CC(=O)N1CCC[C@H](NC(=O)c2n[nH]cc2NC(=O)c2c(Cl)cccc2Cl)C1` [FMF-03-184-1, (S)—N-(1-acryloylpiperidin-3-yl)-4-(2,6-dichlorobenzamido)-1H-pyrazole-3-carboxamide], the IC50 in test [4] was determined as 479 nM; in test [1] (Homo sapiens, HCT-116, 72 h), 737 nM.

On to `CN(C)C/C=C/C(=O)Nc1cccc(C(=O)N2CCC(NC(=O)c3n[nH]cc3NC(=O)c3c(Cl)cccc3Cl)CC2)c1` [FMF-03-196-2, (E)-4-(2,6-dichlorobenzamido)-N-(1-(3-(4-(dimethylamino)but-2-enamido)benzoyl)piperidin-4-yl)-1H-pyrazole-3-carboxamide], for which the IC50 was determined as 77 nM in test [4] and 485 nM in test [1] (Homo sapiens, HCT-116, 72 h).

In the case of `CN(C)C/C=C/C(=O)Nc1ccc(N2CC[C@@H](NC(=O)c3n[nH]cc3NC(=O)c3c(Cl)cccc3Cl)C2)cc1` [FMF-05-075-2, (R,E)-4-(2,6-dichlorobenzamido)-N-(1-(4-(4-(dimethylamino)but-2-enamido)phenyl)pyrrolidin-3-yl)-1H-pyrazole-3-carboxamide], the IC50 is 738 nM in test [4] and 714 nM in test [1] (Homo sapiens, HCT-116, 72 h).

With `CN(C)C/C=C/C(=O)Nc1cccc(CN2CCC(NC(=O)c3n[nH]cc3NC(=O)c3c(F)cccc3F)CC2)c1` [FMF-04-160-2, (E)-4-(2,6-difluorobenzamido)-N-(1-(3-(4-(dimethylamino)but-2-enamido)benzyl)piperidin-4-yl)-1H-pyrazole-3-carboxamide], the IC50 amounted to 223 nM in test [4] and 437 nM in test [1] (Homo sapiens, HCT-116, 72 h).

For `C=CC(=O)Nc1cccc(S(=O)(=O)N2CCC(NC(=O)c3c(NC(=O)c4c(Cl)cccc4Cl)cnn3C)CC2)c1` [FMF-04-120-1, N-(1-((3-acrylamidophenyl)sulfonyl)piperidin-4-yl)-4-(2,6-dichlorobenzamido)-1-methyl-1H-pyrazole-5-carboxamide], the IC50 was greater than 1000 nM in test [4] and 2420 nM in test [1] (Homo sapiens, HCT-116, 72 h).

As for `C=CC(=O)Nc1ccc(NC(=O)c2n[nH]cc2NC(=O)c2c(Cl)cccc2Cl)cc1` [FMF-03-182-1, N-(4-acrylamidophenyl)-4-(2,6-dichlorobenzamido)-1H-pyrazole-3-carboxamide], the IC50 in test [4] was greater than 1000 nM; in test [1] (Homo sapiens, HCT-116, 72 h), 17 nM.

`CN(C)C/C=C/C(=O)N1CCC[C@@H](NC(=O)c2n[nH]cc2NC(=O)c2c(Cl)cccc2Cl)C1` [FMF-03-183-2, (R,E)-4-(2,6-dichlorobenzamido)-N-(1-(4-(dimethylamino)but-2-enoyl)piperidin-3-yl)-1H-pyrazole-3-carboxamide]: the IC50 was determined as 148 nM in test [4] and 157 nM in test [1] (Homo sapiens, HCT-116, 72 h).

For the compound `C=CC(=O)Nc1cccc(CN2CC[C@H](NC(=O)c3n[nH]cc3NC(=O)c3c(Cl)cccc3Cl)C2)c1` [FMF-05-069-1, (S)—N-(1-(3-acrylamidobenzyl)pyrrolidin-3-yl)-4-(2,6-dichlorobenzamido)-1H-pyrazole-3-carboxamide], the IC50 in test [4] came to 150 nM; in test [1] (Homo sapiens, HCT-116, 72 h) it was 27 nM.

On to `C=CC(=O)Nc1ccc(N2CCC(NC(=O)c3n[nH]cc3NC(=O)c3c(Cl)cccc3Cl)CC2)cc1` [FMF-05-073-1, N-(1-(4-acrylamidophenyl)piperidin-4-yl)-4-(2,6-dichlorobenzamido)-1H-pyrazole-3-carboxamide], for which the IC50 in test [4] came to 154 nM; in test [1] (Homo sapiens, HCT-116, 72 h), 30 nM.

With `C=CC(=O)Nc1cccc(S(=O)(=O)N2CCC[C@@H](NC(=O)c3n[nH]cc3NC(=O)c3c(Cl)cccc3Cl)C2)c1` [FMF-04-057-1, (R)—N-(1-((3-acrylamidophenyl)sulfonyl)piperidin-3-yl)-4-(2,6-dichlorobenzamido)-1H-pyrazole-3-carboxamide], the IC50 in test [4] is 836 nM; in test [1] (Homo sapiens, HCT-116, 72 h), greater than 10000 nM.

As to `C=CC(=O)Nc1ccc(CN2CCC(NC(=O)c3n[nH]cc3NC(=O)c3c(Cl)cccc3Cl)CC2)cc1` [FMF-03-199-1, N-(1-(4-acrylamidobenzyl)piperidin-4-yl)-4-(2,6-dichlorobenzamido)-1H-pyrazole-3-carboxamide], the IC50 is 10 nM in test [4] and less than 0.1 nM in test [1] (Homo sapiens, HCT-116, 72 h).

For orientation: IC50 means the concentration needed to halve the response being measured.

The values above are taken from US12187701B2, “Taire family kinase inhibitors and uses thereof” (Dana-Farber Cancer Institute, Inc., priority 2018, dated 2025).
